Measured values taken from PMC9030932, “Development of Dibenzothiazepine Derivatives as Multifunctional Compounds for Neuropathic Pain” (Pharmaceuticals, 2022).
Like-named read-outs stand apart in the source and are kept apart here. Marks after values point to notes of the source that are not given here.

Columns and labels:
Type in all cases: cell-based
[1] = molecular target: human dopamine transporter (hDAT) (Homo sapiens, UniProt Q01959); test: Neurotransmitter transporter uptake assay, HEK-hDAT; conditions: for inhibition at 10 µM: read-out: % Inhibition at 10 μM hDAT
Sequence of human dopamine transporter (hDAT) (Q01959 whole entry): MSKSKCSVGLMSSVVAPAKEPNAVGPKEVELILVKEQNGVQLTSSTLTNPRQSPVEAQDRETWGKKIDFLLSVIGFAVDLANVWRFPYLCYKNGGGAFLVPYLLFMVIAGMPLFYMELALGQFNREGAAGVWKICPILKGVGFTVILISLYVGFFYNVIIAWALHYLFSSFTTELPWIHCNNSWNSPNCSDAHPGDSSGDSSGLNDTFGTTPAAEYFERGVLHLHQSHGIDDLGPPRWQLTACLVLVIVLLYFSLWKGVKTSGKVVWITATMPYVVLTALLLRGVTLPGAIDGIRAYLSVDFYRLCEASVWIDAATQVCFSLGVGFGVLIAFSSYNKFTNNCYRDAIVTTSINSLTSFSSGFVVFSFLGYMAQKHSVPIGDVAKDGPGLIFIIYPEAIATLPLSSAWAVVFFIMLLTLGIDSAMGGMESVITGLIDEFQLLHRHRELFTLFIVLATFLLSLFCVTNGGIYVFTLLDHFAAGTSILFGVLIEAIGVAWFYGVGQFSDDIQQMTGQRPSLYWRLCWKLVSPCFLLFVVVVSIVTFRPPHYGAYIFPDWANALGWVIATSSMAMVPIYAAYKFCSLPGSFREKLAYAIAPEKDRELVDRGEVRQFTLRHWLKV

[2] = molecular target: human serotonin transporter (hSERT) (Homo sapiens, UniProt P31645); test: Neurotransmitter transporter uptake assay, HEK-hSERT; conditions: for inhibition at 10 µM: read-out: % Inhibition at 10 μM hSERT
Sequence of human serotonin transporter (hSERT) (P31645 whole entry): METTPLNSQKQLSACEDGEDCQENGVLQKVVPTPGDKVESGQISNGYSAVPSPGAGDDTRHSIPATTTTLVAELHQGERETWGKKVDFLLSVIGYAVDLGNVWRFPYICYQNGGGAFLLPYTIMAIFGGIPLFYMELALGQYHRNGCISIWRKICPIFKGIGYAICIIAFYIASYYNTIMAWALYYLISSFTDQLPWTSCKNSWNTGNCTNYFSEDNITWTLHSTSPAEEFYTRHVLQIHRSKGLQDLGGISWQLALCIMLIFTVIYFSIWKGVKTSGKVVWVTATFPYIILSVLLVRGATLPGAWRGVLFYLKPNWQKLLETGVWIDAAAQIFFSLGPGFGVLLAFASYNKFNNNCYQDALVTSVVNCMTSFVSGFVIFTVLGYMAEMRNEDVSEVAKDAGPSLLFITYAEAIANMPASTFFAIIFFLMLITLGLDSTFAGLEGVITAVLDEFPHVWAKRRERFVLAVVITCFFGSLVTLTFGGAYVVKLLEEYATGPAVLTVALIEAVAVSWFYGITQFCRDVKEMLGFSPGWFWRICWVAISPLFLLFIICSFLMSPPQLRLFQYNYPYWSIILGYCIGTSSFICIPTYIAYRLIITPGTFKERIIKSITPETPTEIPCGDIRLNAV

[3] = molecular target: human norepinephrine transporter (hNET) (Homo sapiens, UniProt P23975); test: Neurotransmitter transporter uptake assay, HEK-hNET; conditions: read-out: % Inhibition at 10 μM hNET
Sequence of human norepinephrine transporter (hNET) (P23975 whole entry): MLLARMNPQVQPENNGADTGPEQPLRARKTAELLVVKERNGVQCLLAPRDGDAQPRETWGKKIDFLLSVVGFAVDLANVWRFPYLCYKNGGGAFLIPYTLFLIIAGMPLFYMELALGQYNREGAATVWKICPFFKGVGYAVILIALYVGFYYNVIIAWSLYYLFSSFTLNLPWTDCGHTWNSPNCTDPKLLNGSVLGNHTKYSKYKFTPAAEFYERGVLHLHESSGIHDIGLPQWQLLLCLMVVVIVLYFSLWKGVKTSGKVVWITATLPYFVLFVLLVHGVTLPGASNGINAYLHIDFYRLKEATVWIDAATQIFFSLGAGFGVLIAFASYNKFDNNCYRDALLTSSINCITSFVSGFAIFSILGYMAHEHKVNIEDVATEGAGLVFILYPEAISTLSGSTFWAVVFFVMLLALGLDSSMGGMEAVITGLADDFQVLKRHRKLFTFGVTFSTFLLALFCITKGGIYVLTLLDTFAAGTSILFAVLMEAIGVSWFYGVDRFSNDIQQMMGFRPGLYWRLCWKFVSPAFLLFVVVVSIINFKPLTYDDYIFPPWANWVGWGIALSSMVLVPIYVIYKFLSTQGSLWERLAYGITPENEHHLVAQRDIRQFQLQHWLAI

hOPRM1 receptor = molecular target: T1, hOPRM1 receptor (Homo sapiens, UniProt P35372); test: PathHunter CHO-K1 OPRM1 β-arrestin recruitment assay
T1 construct: host or cells: CHO-K1
T1 sequence (P35372 whole entry): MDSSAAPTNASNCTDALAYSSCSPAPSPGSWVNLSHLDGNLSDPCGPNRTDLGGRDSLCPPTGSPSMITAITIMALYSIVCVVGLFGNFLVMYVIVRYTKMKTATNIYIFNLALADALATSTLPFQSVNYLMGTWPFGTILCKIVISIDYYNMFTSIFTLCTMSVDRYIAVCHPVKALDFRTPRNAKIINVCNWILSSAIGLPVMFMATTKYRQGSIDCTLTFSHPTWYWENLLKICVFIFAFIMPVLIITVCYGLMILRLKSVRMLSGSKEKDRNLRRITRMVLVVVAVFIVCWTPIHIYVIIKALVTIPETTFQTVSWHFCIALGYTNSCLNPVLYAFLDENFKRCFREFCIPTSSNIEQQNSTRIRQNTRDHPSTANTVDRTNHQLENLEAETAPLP

[4] = molecular target: T2, human μ-opioid receptor (OPRM1) (Homo sapiens, UniProt P35372); test: Intracellular calcium mobilization (FLIPR Tetra), HEK-hMOR agonism; conditions: for % Stimulation at 10 μM, OPRM1 Agonism against DAMGO (3.9 μM): HEK-hMOR calcium mobilization, normalized to Emax of DAMGO at 3.9 μM
T2 construct: host or cells: HEK293 (constitutive expression)
T2 sequence (P35372 whole entry): as above

[5] = molecular target: T3, human κ-opioid receptor (OPRK1) (Homo sapiens, UniProt P41145); test: Intracellular calcium mobilization (FLIPR Tetra), HEK-hKOR agonism; conditions: read-out: % Stimulation at 10 μM, OPRK1 Agonism against DynorphinA (370 nM)
T3 construct: host or cells: HEK293 (constitutive expression)
T3 sequence (P41145 whole entry): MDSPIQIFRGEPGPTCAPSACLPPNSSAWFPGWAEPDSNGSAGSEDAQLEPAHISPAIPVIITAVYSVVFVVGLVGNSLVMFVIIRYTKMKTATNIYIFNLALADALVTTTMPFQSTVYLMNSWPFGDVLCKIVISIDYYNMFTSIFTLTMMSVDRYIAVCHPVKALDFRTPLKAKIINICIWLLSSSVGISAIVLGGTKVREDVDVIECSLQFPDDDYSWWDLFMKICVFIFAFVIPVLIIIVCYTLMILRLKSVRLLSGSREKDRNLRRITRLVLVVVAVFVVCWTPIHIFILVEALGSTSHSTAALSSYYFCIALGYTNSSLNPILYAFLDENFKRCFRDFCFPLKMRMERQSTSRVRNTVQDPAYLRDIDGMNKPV
Procedure: Intracellular calcium mobilization was measured by using FLIPR Tetra System (Molecular Devices, Sunnyvale, CA, USA) in accordance with manufacturer’s instruction. […] Subsequently, the plate was transferred to the FLIPR tetra system for treating 50 μL of the 5× compounds diluted in loading buffer and reading intracellular calcium mobilization. The final concentration of DMSO was 0.1%. […] A dose response curve was generated with the changes in Relative Fluorescence Units (∆RFU) versus Log10 dose.
Experimental details for Biology
Cell culture. HEK293 cells stably expressing human DA transporter (HEK-hDAT), human NE transporter (HEK-hNET) and human serotonin transporter (HEK-hSERT) were kindly provided by Professor Bryan Roth (University of North Carolina at Chapel Hill). And HEK293 cells constitutively expressing human κ- or μ- opioid receptor (HEK-hKOR_NM000912 or HEK-hMOR_NM000914) were constructed by Professor Ki Duk Park (in Korea Institute of Science […]
Europins DiscoveRx (Fremont, CA, USA). Cells were mainta ined in Dulbecco's modified Eagle's medium (HyClone, Logan, UT, USA) supplemented with 10%(v/v) fetal bovine serum (FBS, HyClone, Logan, UT, USA), penicillin (100 U/mL), and streptomycin (100 μg/mL) in the […]
for HEK-hDAT, HEK-hNET, HEK-hSERT, HEK-hKOR and HEK-hMOR respectively) in a humidified 5% CO2 incubator at 37 °C. In case of both HEK-hKOR and HEK-hMOR, cells were additionally maintained in 0.2 mg/mL hygromycin B, 1 μg/mL puromycin B, 1× non-essential amino acids. The cells were subcultured every 3-4 days. […]

[6] = 10 μM, HEK-hSERT, mean ± SEM, n = 3–6
[7] = 10 μM, HEK-hNET, mean ± SEM, n = 3–6

Row | SMILES | inhibition at 10 µM [1] [%] | inhibition at 10 µM [2, 6] [%] | inhibition at 10 µM [3, 7] [%] | EC50 (hOPRM1 receptor) [µM] | % Stimulation at 10 μM, OPRM1 Agonism against DAMGO (3.9 μM) [4] [% ^b] | activation at 10 µM [5] [%] | other results
1 | CN1c2ccccc2C(NCCc2c[nH]c3ccc(O)cc23)c2ccc(Cl)cc2S1(=O)=O (centres unmarked) [Compound 7, 3-chloro-11-((2-(5-hydroxy-1H-indol-3-yl)ethyl)amino)-6-methyl-6,11-dihydrodibenzo[c,f][1,2]thiazepine 5,5-dioxide] | 36.2 ± 2.7 | 37.5 ± 2.5 | 30.8 ± 2.8 |  |  |  | 
2 | CN1c2ccccc2C(NCC(=O)NCCc2c[nH]c3ccc(O)cc23)c2ccc(Cl)cc2S1(=O)=O (centres unmarked) [Compound 11a, 2-((3-chloro-6-methyl-5,5-dioxido-6,11-dihydrodibenzo[c,f][1,2]thiazepin-11-yl)amino)-N-(2-(5-hydroxy-1H-indol-3-yl)ethyl)acetamide] | 33.2 ± 6.5 | 50.9 ± 4.1 | 13.2 ± 2.3 |  |  |  | 
3 | CN1c2ccccc2C(NCCC(=O)NCCc2c[nH]c3ccc(O)cc23)c2ccc(Cl)cc2S1(=O)=O (centres unmarked) [Compound 11b, 3-((3-chloro-6-methyl-5,5-dioxido-6,11-dihydrodibenzo[c,f][1,2]thiazepin-11-yl)amino)-N-(2-(5-hydroxy-1H-indol-3-yl)ethyl)propanamide] | 44.9 ± 4.2 |  | 54.8 ± 3.7 |  |  |  | IC50 [2]: 4.08 ± 0.032 µM
4 | CN1c2ccccc2C(NCCCC(=O)NCCc2c[nH]c3ccc(O)cc23)c2ccc(Cl)cc2S1(=O)=O (centres unmarked) [Compound 11c, 4-((3-chloro-6-methyl-5,5-dioxido-6,11-dihydrodibenzo[c,f][1,2]thiazepin-11-yl)amino)-N-(2-(5-hydroxy-1H-indol-3-yl)ethyl)butanamide] | 41.3 ± 5.7 | 35.5 ± 3.7 | 24.3 ± 7.4 |  |  |  | 
5 | CN1c2ccccc2C(NCCCCC(=O)NCCc2c[nH]c3ccc(O)cc23)c2ccc(Cl)cc2S1(=O)=O (centres unmarked) [Compound 11d, 5-((3-chloro-6-methyl-5,5-dioxido-6,11-dihydrodibenzo[c,f][1,2]thiazepin-11-yl)amino)-N-(2-(5-hydroxy-1H-indol-3-yl)ethyl)pentanamide] | 41.3 ± 7.6 |  | 21.1 ± 4.7 |  |  |  | IC50 ([2]; HEK-hSERT, neurotransmitter uptake, mean ± SEM, n = 3–6, read-out: IC50 hSERT): 10.1 ± 0.5 µM
6 | CN1c2ccccc2C(NCCCCCC(=O)NCCc2c[nH]c3ccc(O)cc23)c2ccc(Cl)cc2S1(=O)=O (centres unmarked) [Compound 11e, 6-((3-chloro-6-methyl-5,5-dioxido-6,11-dihydrodibenzo[c,f][1,2]thiazepin-11-yl)amino)-N-(2-(5-hydroxy-1H-indol-3-yl)ethyl)hexanamide] | 40.2 ± 0.12 |  | 30.1 ± 5 |  |  |  | IC50 [2]: 6.74 ± 0.38 µM
7 | COc1ccc2[nH]cc(CCNC(=O)CCCCCCNC3c4ccccc4N(C)S(=O)(=O)c4cc(Cl)ccc43)c2c1 (centres unmarked) [Compound 13, 7-((3-chloro-6-methyl-5,5-dioxido-6,11-dihydrodibenzo[c,f][1,2]thiazepin-11-yl)amino)-N-(2-(5-methoxy-1H-indol-3-yl)ethyl)heptanamide] | 25.6 ± 9.7 | 39.7 ± 6.3 | 23.7 ± 7.5 |  |  |  | 
8 | CN1c2ccccc2C(NCCCCCCC(=O)NCCc2c[nH]c3ccccc23)c2ccc(Cl)cc2S1(=O)=O (centres unmarked) [Compound 14, N-(2-(1H-indol-3-yl)ethyl)-7-((3-chloro-6-methyl-5,5-dioxido-6,11-dihydrodibenzo[c,f][1,2]thiazepin-11-yl)amino)heptanamide] |  | 50.3 ± 3.4 | 65.2 ± 3.4 | 0.113 ± 0.003 | 62.3 ± 2.9 | < 10 | IC50 [1]: 3.81 ± 1.4 µM
9 | CN1c2ccccc2C(NCCCCCCCC=CCc2c[nH]c3ccccc23)c2ccc(Cl)cc2S1(=O)=O (centres unmarked) [Compound 21] | 8.92 ± 6.1 | 26.3 ± 6.4 | 5.64 ± 4.5 | > 10 | <10 | < 10 | 
10 | CN1c2ccccc2C(NCCCCCCCCCCc2c[nH]c3ccccc23)c2ccc(Cl)cc2S1(=O)=O (centres unmarked) [Compound 22] | 1.95 ± 0.06 | 17.9 ± 7.5 | 5.56 ± 0.07 | > 10 | 11.8 ± 1.9 | < 10 | 
11 | CC(C)C[C@H](CNC(=O)CCCCCCNC1c2ccccc2N(C)S(=O)(=O)c2cc(Cl)ccc21)CC(=O)O (stereo partly drawn) [Compound 25, (3S)-3-((7-((3-chloro-6-methyl-5,5-dioxido-6,11-dihydrodibenzo[c,f][1,2]thiazepin-11-yl)amino)heptanamido)methyl)-5-methylhexanoic acid] | 17.6 ± 8.9 | 11.3 ± 2.5 | 21 ± 2.6 | > 10 |  | < 10 | EC50 [4]: 2.41 ± 0.144 µM
12 | CN(CCCCCCCNC1c2ccccc2N(C)S(=O)(=O)c2cc(Cl)ccc21)CCC(Oc1ccc(C(F)(F)F)cc1)c1ccccc1 (centres unmarked) [Compound 26, 3-chloro-6-methyl-11-((7-(methyl(3-phenyl-3-(4-(trifluoromethyl)phenoxy)propyl)amino)heptyl)amino)-6,11-dihydrodibenzo[c,f][1,2]thiazepine 5,5-dioxide] | 23.6 ± 12 |  | 7.07 ± 4.1 | > 10 | <10 | < 10 | IC50 [2]: 2.18 ± 0.37 µM
13 | CN1c2ccccc2C(NCCCCCCCNCCc2c[nH]c3ccc(C#N)cc23)c2ccc(Cl)cc2S1(=O)=O (centres unmarked) [Compound 27, 3-(2-((7-((3-chloro-6-methyl-5,5-dioxido-6,11-dihydrodibenzo[c,f][1,2]thiazepin-11-yl)amino)heptyl)amino)ethyl)-1H-indole-5-carbonitrile] |  |  | 63.6 ± 4.4 | 3.28 ± 0.642 | 65.9 ± 2.8 | < 10 | IC50 [1]: 4.98 ± 2.1 µM; IC50 [2]: 0.462 ± 0.034 µM
14 | Fc1ccc(C(OCCN2CCN(CCCc3ccccc3)CC2)c2ccc(F)cc2)cc1 [GBR12909, reference compound] | 85.9 ± 0.27 |  |  |  |  |  | inhibition at 10 µM [2]: 70.6 ± 1.3%; inhibition at 10 µM [3]: 79.1 ± 0.71%
15 | CNCCC(Oc1ccccc1OC)c1ccccc1 (centres unmarked) [Nisoxetine, reference compound] | 79.7 ± 1.4 |  |  |  |  |  | inhibition at 10 µM [2]: 79.8 ± 0.32%
